The record followed here is patent publication US20190248834A1, “ENDOMORPHIN-2, TETRAPEPTIDE DERIVATIVES THEREOF, AND USES THEREOF” (priority 2016, published 2019).

Holding throughout (type): in vivo, human
In assay [1] the test system is psoriatic arthritis of interphalangeal joints of the fingers. The assay can be described thus: Example 93: multiple derivatives evaluated for relief of pain associated with psoriatic arthritis, topical. The note with it: 0.8% (w/v) in WEP442, topical to both hands. The text has this:
A subject with extensive plaque psoriasis and psoriatic arthritis of interphalangeal joints of the fingers evaluated multiple tetrapeptide derivatives for comparative effectiveness on relief of their painful fingers. Over the course of 4 weeks, this subject evaluated the analgesic efficacy of ten (10) endomorphin-2 tetrapeptide derivatives in WEP442 at a concentration of 0.8% (w/v) applied topically to both hands, which included all fingers.

Assay [2] concerns periostitis of right upper tibia, osteoarthritis of left knee, left hip joint pain, lower back pain. Description: Example 87: pain relief at multiple sites in one subject, topical. The note with it: for degree of analgesic effect / pain relief at the treated sites / duration of pain relief / time to pain relief: 0.8% (w/v) in WEP442, topical to the sites of pain; for duration of pain relief, right upper tibia: 0.8% (w/v) in WEP442, periostitis of right upper tibia. The source says: A caregiver subject, presented with (a) painful periostitis of the right upper tibia for about 3 months, (b) painful early osteoarthritis of the left knee for about 1 year, (c) painful left hip joint of about 6 months, and (d) lower back pain near the end of the work day for about 2 years.
Over the course of 16 days, this subject evaluated the analgesic efficacy of eight (8) endomorphin-2 tetrapeptide derivatives in WEP442 at a concentration of 0.8% (w/v) applied topically to the sites of pain.
The lower back pain returned toward the end of the following work day.
Relief of lower back pain lasted for 20-24 hours (4+ effect). […]
For the above same subject, the composition containing 0.8% (w/v) of N-Ac-Tyr-Pro-Phe-Phe-NHCH(CH3)2 (SEQ ID NO: 27) in WEP442 was topically applied to the right upper tibia, left knee and left hip.
For the above same subject, the composition containing 0.8% (w/v) of N-Fo-Tyr-Pro-Phe-Phe-NH2 (SEQ ID NO: 104) in WEP442 was topically applied to 3 sites. Relief of pain was variable. […] Relief of pain in the right upper tibia was complete in about 4 minutes, lasting for 12 hours.
For the above same subject, the composition containing 0.8% (w/v) of N-Bz-Tyr-Pro-Phe-Phe-NH2 (SEQ ID NO: 84) in WEP442 provided relief of pain within 2-4 minutes. On the left hip, the relief was complete, lasting for about 12 hours (4+ effect). On the left knee, relief was incomplete, about 50%, lasting for only about 3 hours (2+ effect). On the right upper tibia, relief was complete and lasted for about 12 hours (4+ effect).

Assay [3] concerns severe osteoarthritis of both knees. Description: Example 88: analgesic efficacy of eight derivatives on severe osteoarthritis, topical. As to the method:
A subject with severe osteoarthritis of both knees for a duration of about 7 years evaluated numerous tetrapeptide derivatives over the past years. […] Over the course of 3 weeks, this subject evaluated the analgesic efficacy of eight (8) endomorphin-2 tetrapeptide derivatives in WEP442 at a concentration of 1% (w/v) applied topically to the knees.
Reapplication at the end of that time again provided the same effect. Application at bedtime provided relief of pain for 7 hours. The same results were achieved the next day (3+ to 4+ effect).
A second application, about 15 minutes later, provided somewhat more relief (2+ effect).
Application at 9:30 p.m. provided relief until 5:30 a.m., and similar results were achieved the next day (3+ to 4+ effect).
No modification of pain in the right knee, which had received application of vehicle WEP442 as a control, was detected. Application of the composition containing the tetrapeptide derivative to the right knee about 15 minutes later provided prompt relief of pain. Pain relief in both knees lasted for about 5 hours (3+ to 4+ effect).
Relief lasted for about 3 hours. Re-application at that time provided the same degree of pain relief in about 5 minutes, which lasted about another 3 hours (2+ effect).
For the above same subject, the composition containing 1% (w/v) of N-Fo-Tyr-Pro-Phe-Phe-NH2 (SEQ ID NO: 104) in WEP442 was applied to the left knee, and the composition containing 1% (w/v) of N-Bz-Tyr-Pro-Phe-Phe-NH2 (SEQ ID NO: 84) in WEP442 was applied to the right knee moments later. Relief of pain in both knees seemed equivalent, was detectable in 5-7 minutes and lasted for about 4 hours. This procedure was repeated the next day with about the same results. The degree of pain relief from both solutions was rated as 3+ effect.

The mark [4] stands for this setting: 1% (w/v) in WEP442, topical to the knees.
Where [5] appears, read: 0.8% (w/v) in WEP442, left knee.
[6] abbreviates: 0.8% (w/v) in WEP442, lower lumbar.
Where [7] appears, read: 0.8% (w/v) in WEP442, right upper tibia.

Primed or numbered codes have the meaning given here. *: point of attachment. NHPhenethyl = c1ccc(CCN*)cc1; Bz′ = not defined here; NHBn = c1ccc(CN*)cc1; Propionyl = CCC(=O)*; NHiPr = CC(C)N*; NHNH2 = NN*; For = O=C*; NHOH = ON*

Consider “N-Ac-Tyr-Pro-Phe-Phe-NHCH2CH2C6H5 (Ac-YPFF-NHPhenethyl; SMILES CC(=O)N[C@@H](Cc1ccc(O)cc1)C(=O)N1CCC[C@H]1C(=O)N[C@@H](Cc1ccccc1)C(=O)N[C@@H](Cc1ccccc1)C(=O)NCCc1ccccc1)”, for which, in assay [1], the “degree of analgesic effectiveness” value is 0 (zero represented no relief) and the pain relief entry is recorded as “no detectable analgesic effect”. Further, in assay [2], the “degree of analgesic effect” value is 0 (zero represented no relief) and the “pain relief at the treated sites” value was “no detectable analgesic effect”. Further, in assay [3] (setting [4]), the analgesic effect grade was found to be 0 and the pain relief entry is “no detectable analgesic effect”.

For the substance “N-Ac-Tyr-Pro-Phe-Phe-NHCH2C6H5 (Ac-YPFF-NHBn; SMILES CC(=O)N[C@@H](Cc1ccc(O)cc1)C(=O)N1CCC[C@H]1C(=O)N[C@@H](Cc1ccccc1)C(=O)N[C@@H](Cc1ccccc1)C(=O)NCc1ccccc1)”, in assay [1], the “duration of pain relief” value is given as “about 6 hours”, the pain relief entry was “substantial relief of pain” and the “time to pain relief” value lay within 3 to 5 min. Besides, in assay [2], the “degree of analgesic effect” value is recorded as 4+, the “duration of pain relief” value was no less than 5 h, the “pain relief at the treated sites” value was “complete relief of pain” and the “time to pain relief” value was in the range of 3 to 4 min. Moreover, the analgesic effect grade in assay [3] (1% (w/v) in WEP442, second application about 15 minutes later) is listed as 2+ (2+ (50%): substantial but incomplete relief of pain for less than 4 hours). In addition, in assay [3] (setting [4]), the analgesic effect grade is 1+ (1+ (25%): partial relief of pain for less than 4 hours) and the pain relief result was “little relief of pain”.

Regarding “N-Bz-Tyr-Pro-Phe-Phe-NH2 ({Bz′}-YPFF-NH2)”, in assay [1], the “duration of pain relief” value is recorded as “about 10 hours”; the pain relief result is “incomplete, but substantial relief of pain”; the “time to pain relief” value was 4 to 5 min. In assay [2] (0.8% (w/v) in WEP442, left hip), the “degree of analgesic effect, left hip” value is recorded as 4+; the “duration of pain relief, left hip” value is “about 12 hours”; the “pain relief, left hip” value was “complete”. Further, the “duration of pain relief, left knee” value in assay [2] (setting [5]) is on record as “about 3 hours”. Further, in assay [2] (setting [6]), the “degree of analgesic effect, lower lumbar pain” value was 4+; the “duration of pain relief, lower lumbar pain” value was “about 4 hours”; the “pain relief, lower lumbar pain” value was “responded completely”. Also, in assay [2], the “duration of pain relief, right upper tibia” value (from here on “duration … right upper tibia”) was “about 12 hours” and the “time to pain relief” value lay within 2 to 4 min. For the same substance, in assay [2] (setting [7]), the “degree of analgesic effect, right upper tibia” value was 4+ and the “pain relief, right upper tibia” value is on record as “complete”. In assay [3] (setting [4]), the “duration of pain relief” value was “about 4 hours”.

As for “N-Ac-Tyr-Pro-Phe-Phe-NHCH2CH3 (Ac-YPFF-NHEt; SMILES CCNC(=O)[C@H](Cc1ccccc1)NC(=O)[C@H](Cc1ccccc1)NC(=O)[C@@H]1CCCN1C(=O)[C@H](Cc1ccc(O)cc1)NC(C)=O)”, in assay [1], the “degree of analgesic effectiveness” value is 4+, the “duration of pain relief” value is reported as “about 7 hours”, the pain relief result is “complete relief of pain” and the “time to pain relief” value was in the range of 1 to 2 min. Moreover, in assay [2], the “degree of analgesic effect” value was 4+, the “duration of pain relief” value was no less than 5 h, the “pain relief at the treated sites” value is “complete relief of pain” and the “time to pain relief” value lay within 3 to 4 min. The “duration of pain relief” value in assay [3] (1% (w/v) in WEP442, application at bedtime) turned out to be 7 h. Further, in assay [3] (setting [4]), the “duration of pain relief” value was in the range of 3 to 4 h, the pain relief entry is “very good relief of pain” and the “time to pain relief” value is 3 to 5 min.

Regarding “N-Pa-Tyr-Pro-Phe-Phe-NHOH (Propionyl-YPFF-{NHOH}; SMILES CCC(=O)N[C@@H](Cc1ccc(O)cc1)C(=O)N1CCC[C@H]1C(=O)N[C@@H](Cc1ccccc1)C(=O)N[C@@H](Cc1ccccc1)C(=O)NO)”, in assay [1], the “degree of analgesic effectiveness” value is on record as 4+, the “duration of pain relief” value is “about 7 hours”, the pain relief result is “complete relief of pain” and the “time to pain relief” value is 2 to 3 min.

“N-Ac-Tyr-Pro-Phe-Phe-NHCH(CH3)2 (Ac-YPFF-NHiPr; SMILES CC(=O)N[C@@H](Cc1ccc(O)cc1)C(=O)N1CCC[C@H]1C(=O)N[C@@H](Cc1ccccc1)C(=O)N[C@@H](Cc1ccccc1)C(=O)NC(C)C)”: in assay [1], the “duration of pain relief” value lay within 2 to 3 h, the pain relief entry is reported as “only minimal relief of pain” and the “time to pain relief” value was in the range of 5 to 6 min. Moreover, in assay [2], the “duration … right upper tibia” value worked out at 7 h; the “degree of analgesic effect” value is recorded as 4+; the “duration of pain relief” value is “at least 4 hours”; the “pain relief at the treated sites” value is listed as “Complete relief of pain”. Further, the “time to pain relief” value in assay [2] fell in the range of 3 to 4 min. Further, in assay [3] (setting [4]), the analgesic effect grade was 2+ (2+ (50%): substantial but incomplete relief of pain for less than 4 hours), the “duration of pain relief” value is “about 3 hours”, the pain relief entry was “moderate relief of pain” and the “time to pain relief” value is no more than 15 min.

For “N-Ac-Tyr-Pro-Phe-Phe-NHOH (Ac-YPFF-{NHOH}; SMILES CC(=O)N[C@@H](Cc1ccc(O)cc1)C(=O)N1CCC[C@H]1C(=O)N[C@@H](Cc1ccccc1)C(=O)N[C@@H](Cc1ccccc1)C(=O)NO)”, in assay [1], the “duration of pain relief” value is recorded as “about 2 hours”, the pain relief result was “complete relief of pain” and the “time to pain relief” value was 1 to 2 min. The “duration of relief of lower back pain” value in assay [2] (0.8% (w/v) in WEP442, lower back) is 20 to 24 h. In assay [2], the “degree of analgesic effect” value is on record as 4+, the “duration of pain relief” value is no less than 12 h, the “pain relief at the treated sites” value was “complete relief of pain” and the “time to pain relief” value was no more than 1 min. In addition, in assay [3] (setting [4]), the “duration of pain relief” value is recorded as “about 5 hours”, the pain relief result was “very good relief of pain” and the “time to pain relief” value lay within 3 to 4 min.

For the substance “N-Fo-Tyr-Pro-Phe-Phe-NH2 (For-YPFF-NH2; SMILES NC(=O)[C@H](Cc1ccccc1)NC(=O)[C@H](Cc1ccccc1)NC(=O)[C@@H]1CCCN1C(=O)[C@H](Cc1ccc(O)cc1)NC=O)”, in assay [1], the “duration of pain relief” value was 2 to 3 h, the pain relief entry is given as “only minimal relief of pain” and the “time to pain relief” value fell in the range of 5 to 6 min. In addition, in assay [2] (0.8% (w/v) in WEP442, left hip), the “time to pain relief, left hip” value is “about 5 minutes”. For the same substance, in assay [2] (setting [5]), the “pain relief, left knee” value is “No relief of pain”. In addition, the “duration … right upper tibia” value in assay [2] came to 12 h. Also, in assay [2] (setting [7]), the “pain relief, right upper tibia” value was “complete” and the “time to pain relief, right upper tibia” value is listed as “about 4 minutes”. Besides, the “duration of pain relief” value in assay [3] (setting [4]) is recorded as “about 4 hours”.

Regarding “N-Pa-Tyr-Pro-Phe-Phe-NHNH2 (Propionyl-YPFF-NHNH2; SMILES CCC(=O)N[C@@H](Cc1ccc(O)cc1)C(=O)N1CCC[C@H]1C(=O)N[C@@H](Cc1ccccc1)C(=O)N[C@@H](Cc1ccccc1)C(=O)NN)”, in assay [1], the “degree of analgesic effectiveness” value is given as 4+, the “duration of pain relief” value was “about 7 hours”, the pain relief entry is reported as “complete relief of pain” and the “time to pain relief” value lay within 2 to 3 min.
